These results are taken from article PMC10515483, “Structure–Reactivity Studies of 2-Sulfonylpyrimidines Allow Selective Protein Arylation” (Bioconjugate Chemistry, 2023).

SMILES strings stand for the structures. ≈ marks a conversion by molar mass, not a printed value.

One series has as its target T1, FGE-C341S (Homo sapiens, UniProt Q8NBK3, C341S).
T1 construct: His7 (C); made in house; host or cells: High Five insect cells (baculovirus, pAcGP67B-His7)
T1 sequence (Q8NBK3 34-374 C341S): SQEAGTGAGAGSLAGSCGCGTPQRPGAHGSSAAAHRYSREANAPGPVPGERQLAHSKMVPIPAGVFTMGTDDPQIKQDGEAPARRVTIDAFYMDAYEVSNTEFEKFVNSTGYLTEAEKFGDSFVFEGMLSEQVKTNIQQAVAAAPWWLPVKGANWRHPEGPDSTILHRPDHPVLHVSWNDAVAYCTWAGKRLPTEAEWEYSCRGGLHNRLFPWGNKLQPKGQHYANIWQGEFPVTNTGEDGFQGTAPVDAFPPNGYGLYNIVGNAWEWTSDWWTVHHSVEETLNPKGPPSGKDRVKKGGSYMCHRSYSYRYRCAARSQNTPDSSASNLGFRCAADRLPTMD
Kind of series: Differential scanning fluorimetry (DSF). Particulars: 100 μM compound; 10 µM FGE; read-out: Protein thermal stability ΔTm. The format is binding. The source says: (§1) We also probed the general effect of 2-SPs on protein stability by using differential scanning fluorimetry (DSF). […] Mutants of the 25 kDa DNA-binding domain of the tumor suppressor p53 are notorious for their reduced thermal stability and denaturation/aggregation propensity.[37] The 56 kDa armadillo domain (ARD) of β-catenin mediates canonical Wnt signaling and plays a central role in embryogenesis and tissue homeostasis.[38] FGE (37 kDa) is the only known activator of human sulfatases, and its stability is susceptible to modification of its cysteines.[39] […]
The cloning of human FGE-WT cDNA into baculoviral transfer vector pAcGP67B-His7 and the generation of the recombinant virus (in Sf9 cells) for expression of C-terminally His-tagged recombinant human FGE in High Five insect cells have been […]
were generated by site -directed PCR mutagenesis using pAcGP67B-FGE-WT-His7 as template and the […]
-3’. All expression plasmids were verified by sequencing of the entire coding region to exclude any undesired PCR -derived errors. The purification method was essentially performed as described in Peng et al., with one modification. The size exclusion […]
chromatography (His -trap) step foll owed directly by a second step purification using the ion -exchange column chromatography (Resource -Q). […]
(DSF heats the sample and reads unfolding from a dye or from intrinsic fluorescence.)

A further series concerns the target T2, p53-Y220C (Homo sapiens, UniProt P04637, M133L/N239Y/N268D/V203A/Y220C).
T2 construct: (residues 94-312); 6xHis/lipoyl domain/TEV protease cleavage site (N, cleaved yes); made in house; host or cells: E. coli C41
The series is described as follows: Differential scanning fluorimetry (DSF). The format is binding. Particulars: 100 μM compound; 8 µM p53-Y220C; read-out: Protein thermal stability ΔTm.
Description: as §1
described.7 Briefly, the N-terminal fusion protein (6xHis/lipoyl domain/TEV protease cleavage site) was overexpressed using E. coli C41 cells in 2xTY medium at 20°C for 16 h and purified using standard Ni-affinity chromatography protocols. […]
was further purified using a Heparin column. Finally, gel filtration chromatography was performed using a Superdex 75 16/60 preparative gel filtration column (GE Healthcare) in a 25 mM KPi (pH 7.2), 150 […]
mM NaCl, and 1 mM TCEP buffer. […]
gel electrophoresis and ESI-MS. […]

Series [1] is described as follows: GSH arylation rate constants (NMR; UV-vis for fast warheads). The class given is physicochemical. Particulars: for k: Table S8, rate constants obtained at pH = 7; for k change (vs ref): ratio to rate constant of 4q, acceleration (+) or deceleration (-); for k/kref / ΔΔG≠1exp: relative to 4q; for ΔΔG≠1exp: via -RTln(k/kref). A digest of the protocol: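 Second-order rate constants k for GSH arylation derived from pseudo-first-order k′ (warhead:GSH 1:10), by normalized NMR integration of the disappearing warhead signal over 6 h; TMSP internal standard. KPi buffer with 5% d6-DMSO, pH 7.0 and 6.5, 20 °C; UV–vis used for fast warheads. Mean of ≥2 independent runs.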

Series [2] can be described thus: Solubility in KPi buffer by NMR with TMSP internal standard. The note with it: 50 mM KPi aqueous buffer, pH 7, aqueous with cosolvent or surfactant or cyclodextrin, kinetic from dmso stock.
Description: Stability and solubility assays
transferred to the NMR instrument for acquisition. 1H spectra (16 scans) were recorded every 10 minutes under water suppression conditions. Following acquisition, spectra were analysed using
TopSpin. Normalised integrations of the pyrimidine aromatic 1H signals in the starting material and
product were plotted as a function of time (s), using the TMSP peak as standard for integral
calibration/normalisation and monitoring of compound solubility, allowing extraction of pseudo first
order reaction rate constants (k’). Second order rate constants (k) were back calculated from the ratio
of the pseudo first counterparts and the concentration of thiol in solution.
was confirmed by formation of a single S-arylated product (characteristic 2-alkylthioether signals),
concomitant with formation of the sulfinic acid by -product (leaving group). Hydrolytic stability
assessment was performed at pH 7.0 and pH 8.2 in a similar manner, in the absence of thiol.
Chemoselectivity. Similarly, but replacing GSH by other amino acids , reference 2-
methylsulfonylpyrimidine 4q in 50 mM KPi (pH 8.2) was incubated with 10 equivalents of either Boc-
Lys-OH, L-ser-OMe, N-Ac-Tyr-OH or Proline were used.
Where [3] appears, read: pH 6.5, by NMR, KPi buffer, 5% DMSO-d6.
The mark [4] stands for this setting: pH 7.0, by NMR, KPi buffer, 5% DMSO-d6.
The mark [5] stands for this setting: pH 6.5, measured by UV titrations.
Where [6] appears, read: pH 7.0, measured by UV titrations.

One may read the ΔTm as the change in melting temperature against a reference sample. One may read the solubility as the dissolved amount per volume that the medium holds. On to `CS(=O)(=O)c1ncc(C(F)(F)F)cn1` [4x], for which, on FGE-C341S, the shift in melting temperature (ΔTm) at 100 µM was -0.6 °C. Further, the ΔTm at 100 µM at p53-Y220C came to 0.8 °C. In series [1], the k is 1900 M⁻¹ s⁻¹, the k/kref turned out to be 76000 and the “ΔΔG≠1exp” value is recorded as -28 kJ/mol. In addition, the “k change (vs ref)” value in series [1] (pH 7.0) was “+76,000 fold”. Also, the solubility in series [2] was at least 2000 µM.

On to `CC(C)(C)S(=O)(=O)c1ncccn1` [5a], for which the ΔTm at 100 µM at FGE-C341S was -0.2 ± 0.3 °C; on p53-Y220C, 0.2 °C. Besides, the entries for the “rate constant (k) for the reaction with GSH” value in series [1] (setting [3]) and in series [1] (setting [4]) were “Ca. 0.03 mM-1.s-1” and 0.00018 ± 3e-05 M⁻¹ s⁻¹, respectively. Further, the “k change (vs ref)” value in series [1] (pH 7.0) was -139 fold. In series [1], this molecule had a k/kref of 0.0072. Further, the “ΔΔG≠1exp” value in series [1] amounted to 12 kJ/mol. Also, the solubility in series [2] is at least 2000 µM.

On to `Nc1ccc(S(=O)(=O)c2ncccn2)cc1` [5b], for which the ΔTm at 100 µM at FGE-C341S is -0.4 ± 0.3 °C. Besides, at p53-Y220C, the ΔTm at 100 µM was -0.2 ± 0.1 °C. Moreover, in series [1], the k turned out to be 0.0050 M⁻¹ s⁻¹, the k/kref is 0.20 and the “ΔΔG≠1exp” value was 4.0 kJ/mol. In series [1] (setting [3]), this molecule yielded a rate constant (k) for the reaction with GSH of 0.002 M⁻¹ s⁻¹. Moreover, the rate constant (k) for the reaction with GSH in series [1] (setting [4]) stood at 0.005 M⁻¹ s⁻¹. For the same molecule, the “k change (vs ref)” value in series [1] (pH 7.0) is recorded as -5 fold. In series [2], this molecule showed a solubility of at least 2000 µM.

Regarding `CCCCS(=O)(=O)c1ncccn1` [5c], the ΔTm at 100 µM on FGE-C341S is -0.4 ± 0.3 °C; on p53-Y220C it was 0 °C. Moreover, the rate constant (k) for the reaction with GSH came to 0.0028 ± 0.0003 M⁻¹ s⁻¹ in series [1] (setting [3]) and 0.01 M⁻¹ s⁻¹ in series [1] (setting [4]). For the same molecule, the “k change (vs ref)” value in series [1] (pH 7.0) is -3 fold. The same molecule returned a solubility in series [2] of at least 2000 µM.

For `O=S(=O)(c1ccccc1)c1ncccn1` [5d], the ΔTm at 100 µM at FGE-C341S was -0.4 ± 0.3 °C. For the same molecule, on p53-Y220C, the ΔTm at 100 µM came to 0 °C. In series [1], the k stood at 0.035 M⁻¹ s⁻¹, the k/kref is recorded as 1.4 and the “ΔΔG≠1exp” value is reported as -0.83 kJ/mol. This molecule also had a rate constant (k) for the reaction with GSH in series [1] (setting [3]) of 0.01 ± 0.005 M⁻¹ s⁻¹. Further, in series [1] (setting [4]), the rate constant (k) for the reaction with GSH was 0.035 ± 0.015 M⁻¹ s⁻¹. In addition, in series [1] (pH 7.0), the “k change (vs ref)” value is on record as “≈”. The solubility in series [2] is at least 2000 µM.

`O=S(=O)(CC(F)(F)F)c1ncccn1` [5e]: the figures for the ΔTm at 100 µM at FGE-C341S and on p53-Y220C were -0.6 °C and 1.8 °C, respectively. In series [1], this molecule showed a k of 0.23 M⁻¹ s⁻¹. Moreover, the rate constant (k) for the reaction with GSH in series [1] (setting [3]) came to 0.04 ± 0.005 M⁻¹ s⁻¹; in series [1] (setting [4]) it was 0.23 ± 0.05 M⁻¹ s⁻¹. Further, the “k change (vs ref)” value in series [1] (pH 7.0) is “+9 fold”. The molecule further returned a k/kref in series [1] of 9.2. Also, the “ΔΔG≠1exp” value in series [1] is on record as -5.4 kJ/mol. The molecule also returned a solubility in series [2] of at least 2000 µM.

On to `O=[N+]([O-])c1ccc(S(=O)(=O)c2ncccn2)cc1` [5f], for which the ΔTm at 100 µM at FGE-C341S is -0.4 ± 0.3 °C; at p53-Y220C it was 0.4 °C. The molecule also yielded a k in series [1] of 0.29 M⁻¹ s⁻¹. Besides, the rate constant (k) for the reaction with GSH in series [1] (setting [5]) turned out to be 0.2 ± 0.09 M⁻¹ s⁻¹; in series [1] (setting [6]) it was 0.29 ± 0.17 M⁻¹ s⁻¹. Moreover, the “k change (vs ref)” value in series [1] (pH 7.0) was “+12 fold”. Further, in series [1], the k/kref amounted to 12. Moreover, the “ΔΔG≠1exp” value in series [1] was -6.1 kJ/mol. In addition, the concentration in solution in series [2] (solubility) came to 100 µM (≈ 26.5 µg/mL).

As for `O=S(=O)(NCc1ccccc1)c1ncccn1` [5g], the thermal shift (ΔTm) at 100 µM on FGE-C341S came out at 0 °C; at p53-Y220C, 0.2 °C. The rate constant (k) for the reaction with GSH in series [1] (setting [3]) stood at 0.00015 ± 5e-05 M⁻¹ s⁻¹; in series [1] (setting [4]), 0.0004 ± 0.0001 M⁻¹ s⁻¹. The “k change (vs ref)” value in series [1] (pH 7.0) is reported as -63 fold. In series [2], this molecule registered a solubility of at least 2000 µM.

For `O=S(=O)(Oc1c(F)c(F)c(F)c(F)c1F)c1ncccn1` [5h], at FGE-C341S, the thermal shift (ΔTm) at 100 µM was -0.2 ± 0.3 °C. Also, the thermal shift (ΔTm) at 100 µM at p53-Y220C was found to be 0.4 °C. In series [1], the k turned out to be 24 M⁻¹ s⁻¹, the k/kref was 960 and the “ΔΔG≠1exp” value is given as -17 kJ/mol. Also, in series [1] (setting [5]), the rate constant (k) for the reaction with GSH is 5.4 ± 0.72 M⁻¹ s⁻¹. Also, the rate constant (k) for the reaction with GSH in series [1] (setting [6]) stood at 24 ± 1.1 M⁻¹ s⁻¹. The “k change (vs ref)” value in series [1] (pH 7.0) was “+960 fold”. The molecule also displayed a solubility in series [2] of 100 µM (≈ 32.6 µg/mL).
